Legend:
Assay type in all cases: biochemical
PAD3 = target: T1, PAD3 (Homo sapiens, UniProt Q9ULW8); experiment: Inactivation kinetics, PAD3; details: for kinact/KI: a: single kobs determined; for Fold PAD3 Selectivity: kinact/KI relative to least inhibited isozyme (1.0)
T1 construct: made in house
T1 sequence (Q9ULW8 1-664): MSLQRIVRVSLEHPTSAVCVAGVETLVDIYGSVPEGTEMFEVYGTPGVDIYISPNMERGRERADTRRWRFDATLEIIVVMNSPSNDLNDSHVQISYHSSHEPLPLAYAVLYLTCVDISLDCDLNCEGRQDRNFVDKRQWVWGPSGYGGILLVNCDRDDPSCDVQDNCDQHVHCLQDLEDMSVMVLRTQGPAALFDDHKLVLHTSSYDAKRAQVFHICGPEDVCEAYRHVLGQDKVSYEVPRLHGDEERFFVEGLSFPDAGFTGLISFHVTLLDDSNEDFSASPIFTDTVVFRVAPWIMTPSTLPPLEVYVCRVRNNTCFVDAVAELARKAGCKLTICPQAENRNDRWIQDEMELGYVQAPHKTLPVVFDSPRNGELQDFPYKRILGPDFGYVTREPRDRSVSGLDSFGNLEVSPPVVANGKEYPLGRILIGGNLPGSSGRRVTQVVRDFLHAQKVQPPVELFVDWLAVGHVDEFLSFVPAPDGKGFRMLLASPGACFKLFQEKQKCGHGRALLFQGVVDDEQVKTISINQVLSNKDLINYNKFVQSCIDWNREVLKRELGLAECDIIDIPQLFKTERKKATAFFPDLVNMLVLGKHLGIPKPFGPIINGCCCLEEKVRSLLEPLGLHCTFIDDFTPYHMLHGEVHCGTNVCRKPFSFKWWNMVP
Outline: (§1)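 PAD1, 2 or 4 (2.0 μM) or PAD3 (5.0 μM) preincubated at 37 °C with varying inhibitor in 50 mM HEPES, 10 mM CaCl2, 2 mM DTT, pH 7.6. Timed aliquots assayed 15 min with 10 mM BAEE (BAA for PAD3); citrulline quantified by COLDER.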

PAD4 = target: T2, PAD4 (Homo sapiens, UniProt Q9UM07); experiment: Inactivation kinetics, PAD4; details: for kinact/KI: a: single kobs determined, b: from a linear fit; for Fold PAD4 Selectivity: kinact/KI relative to least inhibited isozyme (1.0)
T2 construct: made in house
T2 sequence (Q9UM07 whole entry): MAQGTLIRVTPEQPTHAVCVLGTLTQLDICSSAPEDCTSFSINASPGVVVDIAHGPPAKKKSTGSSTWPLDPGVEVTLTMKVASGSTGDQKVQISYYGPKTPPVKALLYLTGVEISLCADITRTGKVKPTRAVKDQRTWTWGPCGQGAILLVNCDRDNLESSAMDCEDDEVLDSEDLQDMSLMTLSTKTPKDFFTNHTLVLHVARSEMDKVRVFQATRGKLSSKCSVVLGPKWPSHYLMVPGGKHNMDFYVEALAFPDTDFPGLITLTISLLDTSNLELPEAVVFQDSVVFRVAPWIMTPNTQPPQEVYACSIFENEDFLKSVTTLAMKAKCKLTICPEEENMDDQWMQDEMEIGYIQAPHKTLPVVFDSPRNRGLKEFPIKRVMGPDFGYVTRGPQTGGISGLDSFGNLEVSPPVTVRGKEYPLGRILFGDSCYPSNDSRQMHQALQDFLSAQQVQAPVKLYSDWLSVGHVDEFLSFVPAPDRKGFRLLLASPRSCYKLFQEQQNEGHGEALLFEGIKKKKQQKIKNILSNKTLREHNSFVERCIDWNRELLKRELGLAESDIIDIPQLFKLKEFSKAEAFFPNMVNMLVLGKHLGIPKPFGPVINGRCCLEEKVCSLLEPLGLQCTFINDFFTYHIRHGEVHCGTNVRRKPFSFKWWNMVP
Outline: as §1

PAD2 = target: T3, PAD2 (Homo sapiens, UniProt Q9Y2J8); experiment: Inactivation kinetics, PAD2; details: for kinact/KI: a: single kobs determined, b: from a linear fit, other footnotes: from kinact and KI; for Fold PAD2 Selectivity: kinact/KI relative to least inhibited isozyme (1.0)
T3 construct: made in house
T3 sequence (Q9Y2J8 whole entry): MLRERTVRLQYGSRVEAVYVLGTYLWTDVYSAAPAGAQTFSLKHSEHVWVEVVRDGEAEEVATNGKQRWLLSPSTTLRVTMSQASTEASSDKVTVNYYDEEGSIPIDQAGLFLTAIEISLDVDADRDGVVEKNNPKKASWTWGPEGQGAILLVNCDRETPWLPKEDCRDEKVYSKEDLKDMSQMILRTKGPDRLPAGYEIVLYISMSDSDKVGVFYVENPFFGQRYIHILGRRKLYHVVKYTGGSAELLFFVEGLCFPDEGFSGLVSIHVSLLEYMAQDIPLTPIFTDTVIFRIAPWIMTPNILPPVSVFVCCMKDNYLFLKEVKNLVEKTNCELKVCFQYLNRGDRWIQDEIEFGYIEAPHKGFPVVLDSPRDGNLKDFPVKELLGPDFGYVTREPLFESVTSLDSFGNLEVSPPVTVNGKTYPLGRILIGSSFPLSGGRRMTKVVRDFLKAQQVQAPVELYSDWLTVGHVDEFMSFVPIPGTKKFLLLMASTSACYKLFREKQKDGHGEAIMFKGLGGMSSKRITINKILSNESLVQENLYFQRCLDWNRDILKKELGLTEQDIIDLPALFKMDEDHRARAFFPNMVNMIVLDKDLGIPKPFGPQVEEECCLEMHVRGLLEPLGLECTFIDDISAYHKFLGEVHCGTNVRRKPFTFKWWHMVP
Outline: as §1

PAD1 = target: T4, PAD1 (Homo sapiens, UniProt Q9ULC6); experiment: Inactivation kinetics, PAD1; details: for kinact/KI: a: single kobs determined, b: from a linear fit; for Fold PAD1 Selectivity: kinact/KI relative to least inhibited isozyme (1.0)
T4 construct: made in house
T4 sequence (Q9ULC6 1-663): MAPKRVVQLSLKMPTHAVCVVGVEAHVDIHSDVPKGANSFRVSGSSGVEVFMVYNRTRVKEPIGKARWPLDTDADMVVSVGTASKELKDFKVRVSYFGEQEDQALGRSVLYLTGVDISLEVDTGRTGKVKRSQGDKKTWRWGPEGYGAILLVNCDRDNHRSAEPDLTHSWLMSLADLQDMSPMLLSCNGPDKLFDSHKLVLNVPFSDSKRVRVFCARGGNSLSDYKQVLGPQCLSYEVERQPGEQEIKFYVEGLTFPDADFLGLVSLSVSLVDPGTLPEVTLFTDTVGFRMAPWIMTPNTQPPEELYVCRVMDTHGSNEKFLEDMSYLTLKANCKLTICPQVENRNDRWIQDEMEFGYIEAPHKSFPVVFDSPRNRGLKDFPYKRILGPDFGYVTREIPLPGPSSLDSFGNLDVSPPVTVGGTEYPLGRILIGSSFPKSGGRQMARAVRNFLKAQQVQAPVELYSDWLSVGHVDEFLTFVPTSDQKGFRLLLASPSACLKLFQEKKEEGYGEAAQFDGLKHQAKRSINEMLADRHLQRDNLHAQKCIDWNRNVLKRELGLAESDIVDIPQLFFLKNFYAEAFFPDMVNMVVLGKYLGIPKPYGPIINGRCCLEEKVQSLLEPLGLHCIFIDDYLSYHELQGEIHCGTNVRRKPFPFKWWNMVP
Outline: as §1

Row | SMILES | kinact/KI (PAD3) [M⁻¹ s⁻¹] | Fold PAD3 Selectivity (PAD3) [fold] | kinact/KI (PAD4) [M⁻¹ s⁻¹] | Fold PAD4 Selectivity (PAD4) [fold] | kinact/KI (PAD2) [M⁻¹ s⁻¹] | Fold PAD2 Selectivity (PAD2) [fold] | kinact/KI (PAD1) [M⁻¹ s⁻¹] | Fold PAD1 Selectivity (PAD1) [fold] | Ki (PAD2; PAD2, table footnote) [µM] | kinact (PAD2; PAD2, table footnote) [s⁻¹]
1 | COc1ccc2[nH]c([C@H](CCCNC(=N)CCl)NC(=O)c3cccc4c3C(=O)NC4)nc2c1 [Compound 7t, N1-(3-oxoisoindoline)benzoyl-N5-(2-chloro-1-iminoethyl)-1-(5-methoxy-1H-benzo[d]imidazol-2-yl)-L-ornithine] | 291 | 1.0 | 630 | 2.2 | 1000 | 3.5 | 2130 | 7.3 | – | –
2 | CCn1c([C@H](CCCNC(=N)CF)NC(=O)c2cccc3c2C(=O)NC3)nc2cc(OC)ccc21 [Compound 7u, N1-(3-oxoisoindoline)benzoyl-N5-(2-fluoro-1-iminoethyl)-1-(5-methoxy-1-ethyl-benzo[d]imidazol-2-yl)-L-ornithine] | 33 | 2.5 | 13.2 | 1.0 | 658 | 50 | 316 | 24 | – | –
3 | CCn1c([C@H](CCCNC(=N)CCl)NC(=O)c2cccc3c2C(=O)NC3)nc2cc(OC)ccc21 [Compound 7v, N1-(3-oxoisoindoline)benzol-N5-(2-chloro-1-iminoethyl)-1-(5-methoxy-1-ethyl-benzo[d]imidazol-2-yl)-L-ornithine] | 214 | 4.4 | 48.8 | 1.0 | 780 | 16 | 1010 | 21 | – | –
4 | CCN1Cc2cccc(C(=O)N[C@@H](CCCNC(=N)CF)c3nc4ccccc4[nH]3)c2C1=O [Compound 8a, N1-(2-ethyl-3-oxoisoindoline)benzol-N5-(2-fluoro-1-iminoethyl)-1-(1H-benzo[d]imidazol-2-yl)-L-ornithine] | 248 | 1.0 | 248 | 1.0 | 240 | 1.0 | 807 | 3.4 | – | –
5 | CCN1Cc2cccc(C(=O)N[C@@H](CCCNC(=N)CCl)c3nc4ccccc4[nH]3)c2C1=O [Compound 8b, N1-(2-ethyl-3-oxoisoindoline)benzol-N5-(2-chloro-1-iminoethyl)-1-(1H-benzo[d]imidazol-2-yl)-L-ornithine] | 583 | 1.0 | 810 | 1.4 | 888 | 1.5 | 2530 | 4.3 | – | –
6 | CCN1Cc2cccc(C(=O)N[C@@H](CCCNC(=N)CF)c3nc4ccccc4n3C)c2C1=O [Compound 8c, N1-(2-ethyl-3-oxoisoindoline)benzoyl-N5-(2-fluoro-1-iminoethyl)-1-(1-methyl-benzo[d]imidazol-2-yl)-L-ornithine] | 95.8 | 1.9 | 50.5 | 1.0 | 546 | 11 | 308 | 6.1 | – | –
7 | CCN1Cc2cccc(C(=O)N[C@@H](CCCNC(=N)CCl)c3nc4ccccc4n3C)c2C1=O [Compound 8d, N1-(2-ethyl-3-oxoisoindoline)benzoyl-N5-(2-chloro-1-iminoethyl)-1-(1-methyl-benzo[d]imidazol-2-yl)-L-ornithine] | 62.8 | 1.0 | 75.7 | 1.2 | 1190 | 19 | 1320 | 21 | – | –
8 | CCN1Cc2cccc(C(=O)N[C@@H](CCCNC(=N)CF)c3nc4ccccc4n3CC)c2C1=O [Compound 8e, N1-(2-ethyl-3-oxoisoindoline)benzoyl-N5-(2-fluoro-1-iminoethyl)-1-(1-ethyl-benzo[d]imidazol-2-yl)-L-ornithine] | 20.8 | 1.0 | 20.7 | 1.0 | 677 | 33 | 402 | 19 | – | –
9 | CCN1Cc2cccc(C(=O)N[C@@H](CCCNC(=N)CCl)c3nc4ccccc4n3CC)c2C1=O [Compound 8f, N1-(2-ethyl-3-oxoisoindoline)benzoyl-N5-(2-chloro-1-iminoethyl)-1-(1-ethyl-benzo[d]imidazol-2-yl)-L-ornithine] | 114 | 2.1 | 54.2 | 1.0 | 752 | 14 | 952 | 18 | – | –
10 | CCN1Cc2cccc(C(=O)N[C@@H](CCCNC(=N)CF)c3nc4ccccc4n3C(C)C)c2C1=O [Compound 8g, N1-(2-ethyl-3-oxoisoindoline)benzol-N5-(2-fluoro-1-iminoethyl)-1-(1-isopropyl-benzo[d]imidazol-2-yl)-L-ornithine] | 26.7 | 3.4 | 7.83 | 1.0 | 173 | 22 | 78.3 | 10 | – | –
11 | CCN1Cc2cccc(C(=O)N[C@@H](CCCNC(=N)CCl)c3nc4ccccc4n3C(C)C)c2C1=O [Compound 8h, N1-(2-ethyl-3-oxoisoindoline)benzoyl-N5-(2-chloro-1-iminoethyl)-1-(1-isopropyl-benzo[d]imidazol-2-yl)-L-ornithine] | 80 | 2.0 | 40.5 | 1.0 | 277 | 6.8 | 448 | 11 | – | –
12 | CCN1Cc2cccc(C(=O)N[C@@H](CCCNC(=N)CF)c3nc4c(OC)cccc4[nH]3)c2C1=O [Compound 8i, N1-(2-ethyl-3-oxoisoindoline)benzoyl-N5-(2-fluoro-1-iminoethyl)-1-(4-methoxy-1H-benzo[d]imidazol-2-yl)-L-ornithine] | 153 | 12 | 12.5 | 1.0 | 396 | 32 | 1340 | 107 | – | –
13 | CCN1Cc2cccc(C(=O)N[C@@H](CCCNC(=N)CCl)c3nc4c(OC)cccc4[nH]3)c2C1=O [Compound 8j, N1-(2-ethyl-3-oxoisoindoline)benzoyl-N5-(2-chloro-1-iminoethyl)-1-(4-methoxy-1H-benzo[d]imidazol-2-yl)-L-ornithine] | 313 | 1.0 | 308 | 1.0 | 720 | 2.3 | 1530 | 5.0 | – | –
14 | CCN1Cc2cccc(C(=O)N[C@@H](CCCNC(=N)CF)c3nc4c(OC)cccc4n3C)c2C1=O [Compound 8k, N1-(2-ethyl-3-oxoisoindoline)benzoyl-N5-(2-fluoro-1-iminoethyl)-1-(4-methoxy-1-methyl-benzo[d]imidazol-2-yl)-L-ornithine] | 72 | 1.0 | 71.7 | 1.0 | 6090 | 85 | 1180 | 16 | 5.3 | 0.0323

Reference: patent US11208386B2, “Inhibitors of protein arginine deiminases (PADs) and methods of preparation and use thereof” (University of Massachusetts, priority 2016, dated 2021)
